Measurements reported in the NIST ThermoML archive (doi:10.1021/je300632p).

Experiment: xn = mol fraction of the nth substance listed
Conditions: 101 kPa, Liquid; for viscosity: Falling or rolling sphere viscometry; for mass density: Vibrating tube method

CCCO [propan-1-ol] + CCO
Conditions	mass density, 313.15 K [kg/m3]	mass density, 318.15 K [kg/m3]	mass density, 323.15 K [kg/m3]	mass density, 328.15 K [kg/m3]	viscosity, 313.15 K [mPa·s]	viscosity, 318.15 K [mPa·s]	viscosity, 323.15 K [mPa·s]	viscosity, 328.15 K [mPa·s]
x2 = 0	787.44	783.3	779.11	774.86	1.352	1.214	1.093	0.986
x2 = 0.1	785.86	781.7	777.49	773.22	1.297	1.167	1.053	0.953
x2 = 0.2	784.66	780.48	776.24	771.95	1.239	1.118	1.012	0.919
x2 = 0.301	783.29	779.09	774.83	770.52	1.188	1.074	0.973	0.884
x2 = 0.4	781.9	777.68	773.39	769.06	1.107	1.003	0.911	0.829
x2 = 0.5	780.71	776.45	772.14	767.78	1.051	0.954	0.867	0.79
x2 = 0.599	779.16	774.88	770.54	766.15	1.007	0.916	0.835	0.763
x2 = 0.701	777.53	773.22	768.85	764.43	0.952	0.867	0.792	0.725
x2 = 0.8	775.91	771.56	767.16	762.71	0.901	0.823	0.753	0.69
x2 = 0.9	774.33	769.95	765.52	761.02	0.852	0.78	0.715	0.657
